Data: PubChem BioAssay (NCI)
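Each compound was tested at five concentrations against cells in 96-well plates for 48 hours. Here, GI50 denotes the concentration required for 50% inhibition of growth. TGI marks complete inhibition of growth.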

Assays:
Assay in all cases: DTP human tumour cell line panel, 48 h
[1] = test system: HL-60(TB) leukemia
[2] = test system: SF-268 CNS
[3] = test system: SK-MEL-28 melanoma
[4] = test system: SNB-19 CNS
[5] = test system: MDA-MB-435
[6] = test system: HOP-62 NSCLC
[7] = test system: HCT-15 colon
[8] = test system: SK-MEL-2 melanoma
[9] = test system: UACC-257 melanoma
[10] = test system: SF-295 CNS
[11] = test system: SNB-75 CNS
[12] = test system: HOP-92 NSCLC
[13] = test system: SW-620 colon
[14] = test system: LOX IMVI melanoma
[15] = test system: OVCAR-4 ovarian
[16] = test system: TK-10 renal
[17] = test system: NCI-H23 lung
[18] = test system: NCI-H522 lung
[19] = test system: K-562 leukemia
[20] = test system: KM12 colon
[21] = test system: HT29 colon
[22] = test system: MDA-MB-231 breast
[23] = test system: HCT-116 colon
[24] = test system: CCRF-CEM leukemia
[25] = test system: SF-539 CNS
[26] = test system: MCF7 breast
[27] = test system: A498 renal
[28] = test system: SK-MEL-5 melanoma
[29] = test system: OVCAR-3 ovarian
[30] = test system: COLO 205 colon
[31] = test system: HS 578T breast
[32] = test system: SR leukemia
[33] = test system: UO-31 renal
[34] = test system: RPMI-8226 leukemia
[35] = test system: UACC-62 melanoma
[36] = test system: A549 NSCLC
[37] = test system: T-47D breast
[38] = test system: SK-OV-3 ovarian
[39] = test system: NCI/ADR-RES ovarian
[40] = test system: CAKI-1 renal
[41] = test system: OVCAR-5 ovarian
[42] = test system: U251 CNS
[43] = test system: ACHN renal
[44] = test system: DU-145 prostate
[45] = test system: 786-0 renal
[46] = test system: OVCAR-8 ovarian
[47] = test system: HCC-2998 colon
[48] = test system: M14 melanoma
[49] = test system: PC-3 prostate
[50] = test system: NCI-H460 lung
[51] = test system: SN12C renal
[52] = test system: RXF 393 renal
[53] = test system: MOLT-4 leukemia
[54] = test system: BT-549 breast
[55] = test system: IGROV1 ovarian
[56] = test system: EKVX NSCLC
[57] = test system: MALME-3M melanoma
[58] = test system: NCI-H226 lung

C=C1CO[C@@H]2C[C@@H]1CC/C(C)=C/CC/C(C)=C/CC[C@@]2(C)O
GI50 [1]: 1.17 µM | TGI [1]: 11.2 µM | GI50 [2]: 20.1 µM | TGI [2]: 50.5 µM | GI50 [3]: 16.8 µM | TGI [3]: 38.3 µM | GI50 [4]: 23.3 µM | TGI [4]: 51.6 µM | GI50 [5]: 20.9 µM | TGI [5]: 42.2 µM | GI50 [6]: 17.1 µM | TGI [6]: 32.5 µM | GI50 [7]: 19.9 µM | TGI [7]: 38 µM | GI50 [8]: 27.4 µM | TGI [8]: > 64 µM | GI50 [9]: 16.8 µM | TGI [9]: 39.1 µM | GI50 [10]: 19.6 µM | TGI [10]: 41.7 µM | GI50 [11]: 25 µM | TGI [11]: 46.3 µM | GI50 [12]: 15.9 µM | TGI [12]: 44.9 µM | GI50 [13]: 22.2 µM | TGI [13]: 45.9 µM | GI50 [14]: 2.25 µM | TGI [14]: 21.4 µM | GI50 [15]: 21.7 µM | TGI [15]: 43.4 µM | GI50 [16]: 18.4 µM | TGI [16]: 36.2 µM | GI50 [17]: 21.8 µM | TGI [17]: 44.6 µM | GI50 [18]: 21.1 µM | TGI [18]: 45.2 µM | GI50 [19]: 15.1 µM | TGI [19]: > 46.2 µM | GI50 [20]: 17.4 µM | TGI [20]: 36 µM | GI50 [21]: 28.4 µM | TGI [21]: 94.1 µM | GI50 [22]: 15.5 µM | TGI [22]: 33.3 µM | GI50 [23]: 17.2 µM | TGI [23]: 31.4 µM | GI50 [24]: 14.7 µM | TGI [24]: 33.9 µM | GI50 [25]: 23.4 µM | TGI [25]: 43.6 µM | GI50 [26]: 25.4 µM | TGI [26]: > 63.6 µM | GI50 [27]: 35.8 µM | TGI [27]: > 76.2 µM | GI50 [28]: 18.5 µM | TGI [28]: 34.5 µM | GI50 [29]: 24.1 µM | TGI [29]: 51.6 µM | GI50 [30]: 27.3 µM | TGI [30]: > 60.9 µM | GI50 [31]: 25.7 µM | TGI [31]: > 83.4 µM | GI50 [32]: 1.71 µM | TGI [32]: 12.8 µM | GI50 [33]: 17.1 µM | TGI [33]: 36.5 µM | GI50 [34]: 10.9 µM | TGI [34]: 33.9 µM | GI50 [35]: 18.4 µM | TGI [35]: 35.1 µM | GI50 [36]: 15.4 µM | TGI [36]: 33 µM | GI50 [37]: 18.3 µM | TGI [37]: 42.8 µM | GI50 [38]: 24 µM | TGI [38]: 56.6 µM | GI50 [39]: 18.5 µM | TGI [39]: 36 µM | GI50 [40]: 20.3 µM | TGI [40]: 41.8 µM | GI50 [41]: 18.7 µM | TGI [41]: 39.9 µM | GI50 [42]: 17.9 µM | TGI [42]: 32.4 µM | GI50 [43]: 18.8 µM | TGI [43]: 34 µM | GI50 [44]: 18.5 µM | TGI [44]: 38.3 µM | GI50 [45]: 17.5 µM | TGI [45]: 32.9 µM | GI50 [46]: 20.9 µM | TGI [46]: 44.8 µM | GI50 [47]: 18.3 µM | TGI [47]: 36.4 µM | GI50 [48]: 17.9 µM | TGI [48]: 32.9 µM | GI50 [49]: 15.7 µM | TGI [49]: 33.6 µM | GI50 [50]: 24.1 µM | TGI [50]: > 68.3 µM | GI50 [51]: 20 µM | TGI [51]: 43.7 µM | GI50 [52]: 20 µM | TGI [52]: 39.3 µM | GI50 [53]: 1.26 µM | TGI [53]: 12.4 µM | GI50 [54]: 24.6 µM | TGI [54]: 51.5 µM | GI50 [55]: 3.96 µM | TGI [55]: 28.8 µM | GI50 [56]: 22.4 µM | TGI [56]: 45.2 µM

O=C(/C=C/c1cccc(B(O)O)c1)c1cccc(B(O)O)c1
GI50 [1]: 2.17 µM | TGI [1]: 6.33 µM | GI50 [2]: 1.8 µM | TGI [2]: 5.56 µM | GI50 [3]: 1.72 µM | TGI [3]: 3.46 µM | GI50 [4]: 2.13 µM | TGI [4]: 10.4 µM | GI50 [5]: 1.9 µM | TGI [5]: 4.88 µM | GI50 [6]: 1.59 µM | TGI [6]: 3.26 µM | GI50 [7]: 1.55 µM | TGI [7]: 4.3 µM | GI50 [8]: 2.26 µM | TGI [8]: 5.2 µM | GI50 [9]: 1.38 µM | TGI [9]: 3.31 µM | GI50 [10]: 3.9 µM | TGI [10]: 15.6 µM | GI50 [11]: 3.61 µM | TGI [11]: 16.3 µM | GI50 [12]: 1.53 µM | TGI [12]: 3.59 µM | GI50 [13]: 0.765 µM | TGI [13]: 2.31 µM | GI50 [14]: 0.76 µM | TGI [14]: 2.03 µM | GI50 [15]: 3.27 µM | TGI [15]: 22.2 µM | GI50 [16]: 2.57 µM | TGI [16]: 6.47 µM | GI50 [17]: 1.81 µM | TGI [17]: 4.44 µM | GI50 [18]: 1.51 µM | TGI [18]: 3.02 µM | GI50 [19]: 2.13 µM | TGI [19]: 9 µM | GI50 [20]: 1.37 µM | TGI [20]: 2.79 µM | GI50 [21]: 1.68 µM | TGI [21]: 3.17 µM | GI50 [57]: 2.26 µM | TGI [57]: 6.01 µM | GI50 [22]: 1.58 µM | TGI [22]: 3.17 µM | GI50 [23]: 0.376 µM | TGI [23]: 1.57 µM | GI50 [24]: 0.445 µM | TGI [24]: 2.67 µM | GI50 [25]: 1.84 µM | TGI [25]: 3.73 µM | GI50 [26]: 0.742 µM | TGI [26]: 7.58 µM | GI50 [27]: 1.52 µM | TGI [27]: 3.5 µM | GI50 [28]: 1.85 µM | TGI [28]: 3.83 µM | GI50 [29]: 0.828 µM | TGI [29]: 2.38 µM | GI50 [30]: 1.76 µM | TGI [30]: 3.45 µM | GI50 [31]: 3.89 µM | TGI [31]: 54.8 µM | GI50 [32]: 0.314 µM | TGI [32]: 1.65 µM | GI50 [33]: 1.71 µM | TGI [33]: 3.36 µM | GI50 [34]: 2.25 µM | TGI [34]: 5.68 µM | GI50 [35]: 1.66 µM | TGI [35]: 4.31 µM | GI50 [36]: 2.12 µM | TGI [36]: 5.81 µM | GI50 [37]: 2.31 µM | TGI [37]: 9.58 µM | GI50 [38]: 3.16 µM | TGI [38]: 11.6 µM | GI50 [39]: 1.99 µM | TGI [39]: 5.47 µM | GI50 [40]: 2.85 µM | TGI [40]: 12.6 µM | GI50 [41]: 2.17 µM | TGI [41]: 4.87 µM | GI50 [42]: 0.406 µM | TGI [42]: 1.52 µM | GI50 [43]: 2.14 µM | TGI [43]: 4.33 µM | GI50 [44]: 1.83 µM | TGI [44]: 3.79 µM | GI50 [45]: 1.75 µM | TGI [45]: 3.71 µM | GI50 [46]: 2.19 µM | TGI [46]: 7.23 µM | GI50 [47]: 1.8 µM | TGI [47]: 3.2 µM | GI50 [48]: 1.51 µM | TGI [48]: 3.33 µM | GI50 [58]: 1.91 µM | TGI [58]: 4.14 µM | GI50 [49]: 2.53 µM | TGI [49]: 11.2 µM | GI50 [50]: 1.99 µM | TGI [50]: 4.53 µM | GI50 [51]: 1.7 µM | TGI [51]: 3.61 µM | GI50 [53]: 2.1 µM | TGI [53]: 5.96 µM | GI50 [54]: 1.06 µM | TGI [54]: 2.37 µM | GI50 [55]: 2.52 µM | TGI [55]: 6.65 µM | GI50 [56]: 6.38 µM | TGI [56]: 23.1 µM
